Laboratory results published in article PMC9137512 (Antibiotics, 2022).

Key:
[1] = Free dalbavancin in patient serum by solid phase extraction with a centrifugal device (Nanosep); assay type: in vivo, human; conditions: for fcmax(d1) *: day 1 peak; for fcmax(d1) * / fcmin(d8) *: free concentration determined by solid phase extraction (Nanosep); for fcmin(d8) *: day 8 trough; for fAUC(d8) *: from free concentration by solid phase extraction (Nanosep)
Experimental: The AUC was calculated using the trapezoidal rule.

[2] = Stability of aqueous stock solution; assay type: physicochemical; conditions: HPLC-UV
Description: (§1) For stability testing, two samples were thawed out and subsequently analyzed. Stability was defined by the time for which samples remained a concentration of > 90% of their baseline concentrations.

[3] = Stability of dalbavancin in human serum; conditions: serum samples, HPLC-UV
Description: as §1

[4] = cited from earlier work
Description: Efficacy is associated with the area under the concentration-time curve (AUC) divided by the minimal inhibitory concentration (MIC). […] Standard in vitro me ...

[5] = Free concentration and protein binding in spiked human serum samples (Table S5)
Experimental: Subsequently, samples were mixed for 10 s, stored in an ultrasonic bath for 10 min at 40 °C, then centrifuged at 8000× g for 5 min. Next, 100 µL of the resulting supernatant was further diluted with 500 µL water with 0.1% formic acid. […] Details are described in the Supplementary Materials (Figures S1–S3).
Table S5. […] In order to evaluate the
(a) Spiked human serum samples of 14 patients (8 critically ill and 6 non-critically ill) after calibration with sheep serum.
(b) Spiked human serum samples of 9 critically ill patients and 6 healthy volunteers after calibration with human serum.

[6] = S5a, serum of patient 2 (critically ill) spiked 200 mg/L, measured c 207 mg/L, calibration with sheep serum
[7] = S5a, serum of patient 3 (critically ill) spiked 50 mg/L, measured c 51.2 mg/L, calibration with sheep serum
[8] = S5b, serum of 26 (healthy volunteer) spiked 200 mg/L, measured c 219 mg/L, calibration with human serum
[9] = S5b, serum of 27 (healthy volunteer) spiked 50 mg/L, measured c 52.5 mg/L, calibration with human serum
[10] = S5b, serum of 27 (healthy volunteer) spiked 200 mg/L, measured c 220 mg/L, calibration with human serum
[11] = S5b, serum of 28 (healthy volunteer) spiked 50 mg/L, measured c 49.1 mg/L, calibration with human serum

Question: Which “maximum free fraction at total concentrations below the LOQ of 12.5 mg/L” value ([1]; in accordance with the higher protein binding observed) does the source give for CN[C@H]1C(=O)N[C@@H]2Cc3ccc(cc3)Oc3cc4cc(c3O[C@@H]3O[C@H](C(=O)O)[C@@H](O)[C@H](O)[C@H]3NC(=O)CCCCCCCCC(C)C)Oc3ccc(cc3Cl)[C@@H](O)[C@@H]3NC(=O)[C@H](NC(=O)[C@@H]4NC(=O)[C@@H](NC2=O)c2cc(cc(O)c2Cl)Oc2cc1ccc2O)c1ccc(O)c(c1)-c1c(O[C@H]2O[C@H](CO)[C@@H](O)[C@H](O)[C@@H]2O)cc(O)cc1[C@@H](C(=O)NCCCN(C)C)NC3=O [dalbavancin, Dalbavancin] here?
Answer: 0.4 mg/L

Question: What about the “fcmax(d1) *” value ([1]; patient 1, 1500 mg) of the same molecule?
Answer: 5.4 mg/L

Question: And the “fcmin(d8) *” value ([1]; patient 1, 1500 mg)?
Answer: 1.3 mg/L

Question: And the “fAUC(d8) *” value ([1]; patient 1, 1500 mg)?
Answer: 31200 ng·h/mL

Question: What about the “fcmax(d1) *” value ([1]; patient 2, 1500 mg) of the same molecule?
Answer: 6.4 mg/L

Question: What about the “fcmin(d8) *” value ([1]; patient 2, 1500 mg) of the same molecule?
Answer: 1.0 mg/L

Question: What about the “fAUC(d8) *” value ([1]; patient 2, 1500 mg) of the same molecule?
Answer: 24000 ng·h/mL

Question: What about the “fcmax(d1) *” value ([1]; patient 3, 1500 mg) of the same molecule?
Answer: 6.7 mg/L

Question: And the “fcmin(d8) *” value ([1]; patient 3, 1500 mg)?
Answer: <1.0 mg/L

Question: What about the “fAUC(d8) *” value ([1]; patient 3, 1500 mg) of the same molecule?
Answer: <24000 ng·h/mL

Question: What about the “stability time (>90% of baseline concentration)” value ([2]; frozen at −80 °C) of the same molecule?
Answer: at least 12 months

Question: What about the “stability time (>90% of baseline concentration)” value ([2]; refrigerated (2–8 °C)) of the same molecule?
Answer: at least 3 months

Question: What about the “stability time (>90% of baseline concentration)” value ([3]; frozen at −20 °C) of the same molecule?
Answer: at least 1 month

Question: What about the “stability time (>90% of baseline concentration)” value ([3]; frozen at −80 °C) of the same molecule?
Answer: at least 12 months

Question: And the “stability time (>90% of baseline concentration)” value ([3]; refrigerated (2–8 °C))?
Answer: at least 96 h

Question: What about the “stability time (>90% of baseline concentration)” value ([3]; room temperature) of the same molecule?
Answer: ≥ 48 h

Question: What about the elimination half-life ([4]; approximately) of the same molecule?
Answer: > 14 days

Question: And the clearance [4]?
Answer: 0.05 L/h

Question: And the fc ([5]; S5a, serum of patient 1 (critically ill) spiked 50 mg/L, measured c 53.5 mg/L, Nanosep SPE, HPLC-UV, calibration with sheep serum)?
Answer: 1.4 mg/L

Question: What about the fc ([5]; S5a, serum of patient 1 (critically ill) spiked 200 mg/L, measured c 201 mg/L, calibration with sheep serum) of the same molecule?
Answer: 7.6 mg/L

Question: What about the fc ([5]; S5a, serum of patient 2 (critically ill) spiked 50 mg/L, measured c 53.6 mg/L, calibration with sheep serum) of the same molecule?
Answer: 1.7 mg/L

Question: And the PB [5, 6]?
Answer: 96%

Question: What about the fc [5, 6] of the same molecule?
Answer: 9.0 mg/L

Question: And the PB [5, 7]?
Answer: 96%

Question: What about the fc [5, 7] of the same molecule?
Answer: 1.9 mg/L

Question: What about the fc ([5]; S5a, serum of patient 3 (critically ill) spiked 200 mg/L, measured c 209 mg/L, calibration with sheep serum) of the same molecule?
Answer: 9.1 mg/L

Question: And the fc ([5]; S5a, serum of patient 4 (critically ill) spiked 50 mg/L, measured c 54.2 mg/L, calibration with sheep serum)?
Answer: 1.6 mg/L

Question: And the fc ([5]; S5a, serum of patient 4 (critically ill) spiked 200 mg/L, measured c 212 mg/L, calibration with sheep serum)?
Answer: 7.7 mg/L

Question: And the fc ([5]; S5a, serum of patient 5 (critically ill) spiked 50 mg/L, measured c 53.0 mg/L, calibration with sheep serum)?
Answer: 2.1 mg/L

Question: What about the fc ([5]; S5a, serum of patient 5 (critically ill) spiked 200 mg/L, measured c 203 mg/L, calibration with sheep serum) of the same molecule?
Answer: 9.5 mg/L

Question: And the fc ([5]; S5a, serum of patient 6 (critically ill) spiked 50 mg/L, measured c 50.4 mg/L, calibration with sheep serum)?
Answer: 1.5 mg/L

Question: And the fc ([5]; S5a, serum of patient 6 (critically ill) spiked 200 mg/L, measured c 204 mg/L, calibration with sheep serum)?
Answer: 9.2 mg/L

Question: And the fc ([5]; S5a, serum of patient 7 (critically ill) spiked 50 mg/L, measured c 49.1 mg/L, calibration with sheep serum)?
Answer: 2.4 mg/L

Question: What about the fc ([5]; S5a, serum of patient 7 (critically ill) spiked 200 mg/L, measured c 195 mg/L, calibration with sheep serum) of the same molecule?
Answer: 10.2 mg/L

Question: And the fc ([5]; S5a, serum of patient 8 (critically ill) spiked 50 mg/L, measured c 54.3 mg/L, calibration with sheep serum)?
Answer: 1.8 mg/L

Question: And the fc ([5]; S5a, serum of patient 8 (critically ill) spiked 200 mg/L, measured c 201 mg/L, calibration with sheep serum)?
Answer: 8.7 mg/L

Question: What about the fc ([5]; S5a, serum of patient 9 (non-critically ill) spiked 50 mg/L, measured c 40.0 mg/L, calibration with sheep serum) of the same molecule?
Answer: < 1.0 mg/L

Question: What about the fc ([5]; S5a, serum of patient 9 (non-critically ill) spiked 200 mg/L, measured c 177 mg/L, calibration with sheep serum) of the same molecule?
Answer: 3.7 mg/L

Question: What about the fc ([5]; S5a, serum of patient 10 (non-critically ill) spiked 50 mg/L, measured c 47.8 mg/L, calibration with sheep serum) of the same molecule?
Answer: < 1.0 mg/L

Question: What about the fc ([5]; S5a, serum of patient 10 (non-critically ill) spiked 200 mg/L, measured c 180 mg/L, calibration with sheep serum) of the same molecule?
Answer: 4.0 mg/L

Question: What about the fc ([5]; S5a, serum of patient 11 (non-critically ill) spiked 50 mg/L, measured c 38.6 mg/L, calibration with sheep serum) of the same molecule?
Answer: < 1.0 mg/L

Question: And the fc ([5]; S5a, serum of patient 11 (non-critically ill) spiked 200 mg/L, measured c 177 mg/L, calibration with sheep serum)?
Answer: 3.5 mg/L

Question: What about the fc ([5]; S5a, serum of patient 12 (non-critically ill) spiked 50 mg/L, measured c 42.6 mg/L, calibration with sheep serum) of the same molecule?
Answer: < 1.0 mg/L

Question: What about the fc ([5]; S5a, serum of patient 12 (non-critically ill) spiked 200 mg/L, measured c 195 mg/L, calibration with sheep serum) of the same molecule?
Answer: 3.9 mg/L

Question: And the fc ([5]; S5a, serum of patient 13 (non-critically ill) spiked 50 mg/L, measured c 53.0 mg/L, calibration with sheep serum)?
Answer: 1.1 mg/L

Question: And the fc ([5]; S5a, serum of patient 13 (non-critically ill) spiked 200 mg/L, measured c 214 mg/L, calibration with sheep serum)?
Answer: 6.3 mg/L

Question: What about the fc ([5]; S5a, serum of patient 14 (non-critically ill) spiked 50 mg/L, measured c 50.0 mg/L, calibration with sheep serum) of the same molecule?
Answer: 1.1 mg/L

Question: And the fc ([5]; S5a, serum of patient 14 (non-critically ill) spiked 200 mg/L, measured c 208 mg/L, calibration with sheep serum)?
Answer: 4.6 mg/L

Question: And the fc ([5]; S5b, serum of 24 (healthy volunteer) spiked 50 mg/L, measured c 46.1 mg/L, calibration with human serum)?
Answer: 1.6 mg/L

Question: And the fc ([5]; S5b, serum of 24 (healthy volunteer) spiked 200 mg/L, measured c 184 mg/L, calibration with human serum)?
Answer: 4.6 mg/L

Question: And the fc ([5]; S5b, serum of 25 (healthy volunteer) spiked 50 mg/L, measured c 45.8 mg/L, calibration with human serum)?
Answer: 1.6 mg/L

Question: What about the fc ([5]; S5b, serum of 25 (healthy volunteer) spiked 200 mg/L, measured c 197 mg/L, calibration with human serum) of the same molecule?
Answer: 5.8 mg/L

Question: What about the fc ([5]; S5b, serum of 26 (healthy volunteer) spiked 50 mg/L, measured c 52.6 mg/L, calibration with human serum) of the same molecule?
Answer: 1.6 mg/L

Question: What about the PB [5, 8] of the same molecule?
Answer: 97%

Question: And the fc [5, 8]?
Answer: 5.2 mg/L

Question: What about the PB [5, 9] of the same molecule?
Answer: 97%

Question: And the fc [5, 9]?
Answer: 1.7 mg/L

Question: And the PB [5, 10]?
Answer: 97%

Question: What about the fc [5, 10] of the same molecule?
Answer: 5.1 mg/L

Question: And the PB [5, 11]?
Answer: 97%

Question: What about the fc [5, 11] of the same molecule?
Answer: 1.6 mg/L

Question: What about the PB ([5]; S5b, serum of 28 (healthy volunteer) spiked 200 mg/L, measured c 199 mg/L, calibration with human serum) of the same molecule?
Answer: 98%
